The results in this text go back to ChEMBL document CHEMBL3399986, “Rapid 'one-pot' synthesis of a novel benzimidazole-5-carboxylate and its hydrazone derivatives as potential anti-inflammatory and antimicrobial agents” (Bioorg Med Chem Lett, 2015).

≈ marks a conversion by molar mass, not a printed value.

Holding throughout (type): functional
Test [1] concerns Penicillium chrysogenum. The test can be described thus: Antifungal activity against Penicillium notatum assessed as zone of inhibition at 5 mg/ml after 24 hrs by agar well diffusion method. Conditions: read-out: IZ. (In general: Agar diffusion results depend on both activity and mobility in agar.)
For test [2], the system named is Aspergillus niger. The test can be described thus: Antifungal activity against Aspergillus niger MTCC 282 assessed as zone of inhibition at 5 mg/ml after 24 hrs by agar well diffusion method. The settings on record: MTCC 282, 24 h, read-out: IZ.
Test [3] deals with Candida albicans. Nature of the test: Antifungal activity against Candida albicans MTCC 461 assessed as zone of inhibition at 5 mg/ml after 24 hrs by agar well diffusion method. The settings on record: MTCC 461, 24 h, read-out: IZ.
The subject of test [4] is Escherichia coli. The test can be described thus: Antimicrobial activity against Escherichia coli MTCC 4351 after 24 hrs by broth dilution method. Conditions: MTCC 4351, 24 h. (In general: Dilution methods test growth across graded concentrations, often in twofold steps.)
For test [5], the system named is Penicillium chrysogenum. The test can be described thus: Antifungal activity against Penicillium notatum after 48 hrs by broth dilution method.
Test [6] relates to Candida tropicalis. Nature of the test: Antifungal activity against Candida tropicalis MTCC 183 assessed as zone of inhibition at 5 mg/ml after 24 hrs by agar well diffusion method. The settings on record: MTCC 183, 24 h, read-out: IZ.
The subject of test [7] is Staphylococcus aureus. The test can be described thus: Antimicrobial activity against Staphylococcus aureus MTCC 3160 assessed as zone of inhibition at 5 mg/ml after 24 hrs by agar well diffusion method. The settings on record: MTCC 3160, 24 h, read-out: IZ.
The test system of test [8] is Rattus norvegicus. Nature of the test: Antiinflammatory activity in rat assessed as inhibition of carrageenan-induced paw edema administered 30 mins prior to carrageenan challenge measured after 2 hrs relative to control.
Test [9] concerns Bacillus subtilis. The test can be described thus: Antimicrobial activity against Bacillus subtilis MTCC 441 after 24 hrs by broth dilution method. The settings on record: MTCC 441, 24 h.
For test [10], the system named is Klebsiella pneumoniae. Nature of the test: Antimicrobial activity against Klebsiella pneumoniae MTCC 3384 after 24 hrs by broth dilution method. Conditions: MTCC 3384, 24 h.
Test [11] concerns Klebsiella pneumoniae. Nature of the test: Antimicrobial activity against Klebsiella pneumoniae MTCC 3384 assessed as zone of inhibition at 5 mg/ml after 24 hrs by agar well diffusion method. Conditions: MTCC 3384, 24 h, read-out: IZ.
Test [12] deals with Candida tropicalis. The test can be described thus: Antifungal activity against Candida tropicalis MTCC 183 after 48 hrs by broth dilution method. Conditions: MTCC 183, 48 h.
In test [13] the test system is Escherichia coli. The test can be described thus: Antimicrobial activity against Escherichia coli MTCC 4351 assessed as zone of inhibition at 5 mg/ml after 24 hrs by agar well diffusion method. Conditions: MTCC 4351, 24 h, read-out: IZ.
For test [14], the system named is Staphylococcus aureus. Nature of the test: Antimicrobial activity against Staphylococcus aureus MTCC 3160 after 24 hrs by broth dilution method. Conditions: MTCC 3160, 24 h.
Test [15] deals with Rattus norvegicus. Nature of the test: Antiinflammatory activity in rat assessed as inhibition of carrageenan-induced paw edema administered 30 mins prior to carrageenan challenge measured after 1 hr relative to control. For orientation: The carrageenan paw model is a standard test of acute inflammation.
Test [16] concerns Candida albicans. The test can be described thus: Antifungal activity against Candida albicans MTCC 461 after 48 hrs by broth dilution method. The settings on record: MTCC 461, 48 h.
For test [17], the system named is Aspergillus niger. The test can be described thus: Antifungal activity against Aspergillus niger MTCC 282 after 48 hrs by broth dilution method. Conditions: MTCC 282, 48 h.
For test [18], the system named is Bacillus subtilis. Nature of the test: Antimicrobial activity against Bacillus subtilis MTCC 441 assessed as zone of inhibition at 5 mg/ml after 24 hrs by agar well diffusion method. Conditions: MTCC 441, 24 h, read-out: IZ.
Test [19] relates to Rattus norvegicus. Nature of the test: Antiinflammatory activity in rat assessed as inhibition of carrageenan-induced paw edema administered 30 mins prior to carrageenan challenge measured after 3 hrs relative to control.

Usually MIC stands for the lowest concentration found to suppress growth. For the molecule `CCCn1c(-c2ccc(Cl)cc2Cl)nc2cc(C(=O)N/N=C/c3ccc(OC)cc3)ccc21`, the zone of inhibition at 5000 µg/mL in test [1] worked out at 12 mm; in test [2], 18 mm; in [3], 15 mm; in test [6], 16 mm; in [7], 17 mm; in test [11], 14 mm. Besides, the zone of inhibition at 5000 µg/mL was determined as 17 mm in [13] and 10 mm in [18]. Further, the MIC in test [4] was 12.5 µg/mL (≈ 26 µM); in [5], 50 µg/mL (≈ 104 µM); in test [9], 50 µg/mL (≈ 104 µM); in test [10], 50 µg/mL (≈ 104 µM); in test [12] it was 25 µg/mL (≈ 51.9 µM); in [14], 12.5 µg/mL (≈ 26 µM). The MIC in test [16] worked out at 25 µg/mL (≈ 51.9 µM); in [17] it was 12.5 µg/mL (≈ 26 µM). The “inhibition (INH)” value in test [8] stood at 62.23%; in test [15], 51.11%; in [19], 64.67%.

Consider `CCCn1c(-c2ccc(Cl)cc2Cl)nc2cc(C(=O)N/N=C/c3cc(C)c(O)c(C)c3)ccc21`, for which the zone of inhibition at 5000 µg/mL in test [1] is 15 mm; in test [2] it was 20 mm; in test [3], 14 mm; in test [6] it was 16 mm; in test [7], 17 mm; in test [11], 17 mm. The values for the zone of inhibition at 5000 µg/mL in test [13] and in test [18] were 20 mm and 17 mm, respectively. Besides, the MIC in test [4] turned out to be 6.25 µg/mL (≈ 12.6 µM); in test [5], 25 µg/mL (≈ 50.5 µM); in [9], 12.5 µg/mL (≈ 25.2 µM); in test [10], 25 µg/mL (≈ 50.5 µM); in test [12], 12.5 µg/mL (≈ 25.2 µM); in test [14], 12.5 µg/mL (≈ 25.2 µM). In addition, the MIC was 50 µg/mL (≈ 101 µM) in test [16] and 6.25 µg/mL (≈ 12.6 µM) in test [17]. The results for the “inhibition (INH)” value in [8], in [15] and in test [19] were 50.48%, 51.11% and 43.06%, respectively.

Turning to `CCCn1c(-c2ccc(Cl)cc2Cl)nc2cc(C(=O)N/N=C/c3ccc(Br)cc3)ccc21`, the zone of inhibition at 5000 µg/mL was determined as 14 mm in test [1]; 20 mm in [2]; 15 mm in [3]; 16 mm in test [6]; 17 mm in [7]; 17 mm in test [11]. Also, the zone of inhibition at 5000 µg/mL in test [13] stood at 22 mm; in test [18], 19 mm. Further, the MIC in [4] was found to be 3.12 µg/mL (≈ 5.88 µM); in test [5], 50 µg/mL (≈ 94.3 µM); in [9] it was 6.25 µg/mL (≈ 11.8 µM); in [10] it was 25 µg/mL (≈ 47.1 µM); in test [12], 12.5 µg/mL (≈ 23.6 µM); in test [14], 12.5 µg/mL (≈ 23.6 µM). In addition, the MIC came out at 25 µg/mL (≈ 47.1 µM) in test [16] and 6.25 µg/mL (≈ 11.8 µM) in test [17]. Moreover, the “inhibition (INH)” value in test [8] is listed as 69.51%; in test [15] it was 65.55%; in [19] it was 69.05%.

Consider `O=C([O-])Cc1ccccc1Nc1c(Cl)cccc1Cl.[Na+]` [DICLOFENAC SODIUM], for which the “inhibition (INH)” value in [8] was 73.28%; in test [15] it was 62.96%; in test [19], 74.74%.

As for `CCCn1c(-c2ccc(Cl)cc2Cl)nc2cc(C(=O)N/N=C/c3ccc(N(C)C)cc3)ccc21`, the zone of inhibition at 5000 µg/mL in [1] turned out to be 13 mm; in test [2], 16 mm; in test [3] it was 16 mm; in [6] it was 16 mm; in test [7], 17 mm; in test [11] it was 16 mm. The zone of inhibition at 5000 µg/mL in [13] was found to be 15 mm; in [18], 19 mm. The minimal inhibitory concentration (MIC) in [4] stood at 25 µg/mL (≈ 50.6 µM); in test [5] it was 50 µg/mL (≈ 101 µM); in test [9] it was 6.25 µg/mL (≈ 12.6 µM); in test [10] it was 25 µg/mL (≈ 50.6 µM); in [12], 25 µg/mL (≈ 50.6 µM); in test [14] it was 12.5 µg/mL (≈ 25.3 µM). The minimum inhibitory concentration (MIC) in test [16] was 12.5 µg/mL (≈ 25.3 µM); in [17], 25 µg/mL (≈ 50.6 µM). Besides, the “inhibition (INH)” value worked out at 53.84% in test [8], 55% in test [15] and 50.94% in test [19].
